Test results as given in patent US12503446B2, “Bromodomain inhibitors” (FORSCHUNGSZENTRUM JÜLICH GMBH, priority 2019, dated 2025).

Assays:
HEL cells = assay: Viability from trypan blue staining, HEL; type: cell-based; settings: 5 μM, compared to PFI-1
Experimental: (§1) Cell count and viability was determined after trypan blue staining. The appropriate concentrations of the inhibitors per ml of medium were added, or the correspondingly highest volume of DMSO was added as control group.
(§2) During the study of cell proliferation, the viability of the cell lines was likewise determined from the trypan blue staining. Trypan blue cannot penetrate into living cells.

[1] = system: PARP1 cleavage in Molm-14 cells; assay: PARP1 cleavage Western blot (apoptosis), Molm-14; type: cell-based; settings: 5 μM
Experimental: Cell lysates were produced with RIPA lysis buffer (50 mM Tris pH 7.4, 150 mM sodium chloride, 1 mM EDTA, 1% Triton-X, 15% glycerol, 0.5% sodium deoxycholate, and protease/phosphatase inhibitors). Protein concentrations were determined by the Bradford Protein Assay using a Nanodrop Spectrometer (NanoDrop 2000/2000c system, Thermo Fisher Scientific, Darmstadt, Germany) at 595 nm. To 25 μg of protein lysates was added 4xLämmli sample buffer, followed by denaturing at 65° C. for 5 min and introduction into the SDS-Page. The proteins were transferred by the wet blot method in Towbin buffer (3 g Tris, 14.4 g glycine, 5% methanol per litre of ddH2O) to a PVDF membrane at 100 mA overnight. The membrane was blocked with 10% BSA in TBS-T buffer (20 mM Tris-HCl, pH 7.6, 137 mM NaCl, 0.05% IGEPAL). The primary antibodies were incubated at 4° C. overnight, and the HRP-labelled antibodies at room temperature with the membrane for […]. The proteins were detected by means of PCA-ECL solution using a chemiluminescence detector (Fusion SL, PeqLab).
In addition, a possible induction of apoptosis in the cell lines described by compound MF2 was examined. […] The cleavage of the PARP1 protein is an indicator of incipient apoptosis (cell death) of the cells, and the cleavage products of PARP1 were accordingly examined by Western blot. In detail, after the inhibitor treatment, cell lysates were produced with RIPA lysis buffer. Protein concentrations were determined with the Bradford protein assay using a Nanodrop Spectrometer at 595 nm. To 25 μg of the protein lysates was added 4×Lämmli sample buffer, followed by denaturing at 65° C. for 5 min and introduction into the SDS-Page. The proteins were transferred by the wet blot method to a PVDF membrane at 100 mA overnight. The membrane was blocked with 10% BSA in TBS-T buffer. The primary antibodies were incubated at 4° C. overnight, and the HRP-labelled antibodies at room temperature with the membrane for 45 min. The proteins were detected by means of PCA-ECL solution using a chemiluminescence detector (Fusion SL, PeqLab). […]

[2] = system: proteins from the BET family; assay: Thermal shift assay (BromoMELT assay), BET family; type: binding; settings: 10 μM, duplicates, versus DMSO control; apart from BRDT-2
Experimental: The experiment was conducted in duplicates at a concentration of 10 μM.

[3] = system: mononuclear cells from AML patients; assay: CFU assay, AML patients; type: cell-based, human
Experimental: (§3) With the aid of the CFU assay, it is possible to determine the colony-forming capacity of individual cells in a semisolid methylcellulose medium (MethoCult H4434, StemCell Technologies, Cologne, Germany). The number of colonies was determined after 7-11 days.
Mononuclear cells from the bone marrow from AML patients: 7×10^5 cells/ml
Vital sterile mononuclear bone marrow cells from AML patients were cultured for 24 h in 1.5 ml of BIT Medium in 8.5 ml of IMDM medium (to which had been added 5 μl of FLT3 ligand, 10 μl of rh SCF, 2 μl of rh IL-3, 2 μl of rh G-CSF, 50 μl of ciprofloxacin and 6.99 μl of β-mercaptoethanol in 1:100 dilution), before they were used in the CFU assay.
(§4) Individual cells in the CFU assay form cell colonies in culture after 12 days, unless the formation thereof is prevented by inhibitors.

[4] = system: mononuclear cells from MPN patients (JAK2V617F-positive); assay: CFU assay, MPN patients (PV, PMF, ET); type: cell-based, human
Experimental: as §3
PBMCs from PV, ET or PMF patients: 4×10^5 cells/ml
as §4
Myeloproliferative neoplasia includes three conventional Philadelphia chromosome-negative (BCR-ABL-negative) disease entities: polycythemia vera (PV), essential thrombocythaemia (ET) and primary myelofibrosis (PMF). Both PV and ET can progress to become myelofibrosis (MF), which usually means a fatal deterioration in the disease state and in the success of treatment. All the MPN patients involved in these studies were JAK2V617F-positive.

Molm-14 cells = assay: Viability from trypan blue staining, Molm-14; type: cell-based; settings: 5 μM, compared to PFI-1
Experimental: as §1, §2

In the case of `CN1Cc2cc(N=[S@@](C)(=O)c3ccccc3)ccc2NC1=O` [MF2-S, (S)—N-(3-methyl-2-oxo-1,2,3,4-tetrahydroquinazolin-6-yl)-S-methyl-S-phenylsulfoximine], the “viability of HEL cells” value (HEL cells) is reported as “significantly reduced the viability”, the “uncleaved PARP1, Molm-14” value ([1]; 48 h) is reported as “less uncleaved PARP1 was apparent” and the “band for the PARP1 cleavage product, Molm-14” value ([1]; 48 h, compared to PFI-1) is reported as “same intensity”. For the same molecule, the “induction of apoptosis, Molm-14” value ([1]; compared to MF2, MF2-R, PFI-1) was “induced apoptosis more strongly than the other compounds examined”, the “binding of BET family proteins (ΔTm, in words)” value [2] was “equally good or better binding of proteins from the BET family compared to the comparative compound PFI-1” and the “colony count, AML patients, 1 μM versus 5 μM PFI-1” value ([3]; 1 μM) was “just as efficient as 5 μM PFI-1”. For the same molecule, the “colony count, AML patients” value ([3]; 1 μM and 5 μM, compared to PFI-1 at same concentration) was “reduced the colony count to a significantly greater degree than PFI-1”, the “colony count, PMF patient” value ([4]; 1 μM) was “very efficiently reduced the colony count” and the “colony count, MPN patients” value ([4]; 5 μM, compared to PFI-1) was “significantly greater reduction in each case in the colony count”. For the same molecule, the “viability of Molm-14 cells” value (Molm-14 cells) was “significantly reduced the viability”.
